Experimental data published in patent US9085555B2, “Complement pathway modulators and uses thereof” (priority 2011, dated 2015).
Counter-ions that a name gives are not always drawn.

Target: Factor D (Homo sapiens (Human), UniProt P00746)
Assay: biochemical
Assay type: biochemical
Conditions: read-out: IC50

Chain of Factor D (P00746 26-253): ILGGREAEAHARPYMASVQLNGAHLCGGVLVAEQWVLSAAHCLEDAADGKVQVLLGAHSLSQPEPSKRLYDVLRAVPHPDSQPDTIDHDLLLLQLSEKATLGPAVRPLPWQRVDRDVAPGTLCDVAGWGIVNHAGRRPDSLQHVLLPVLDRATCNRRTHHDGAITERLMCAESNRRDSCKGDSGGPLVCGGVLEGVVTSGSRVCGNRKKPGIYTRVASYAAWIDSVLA

NC(=O)n1cc(NC(=O)N2C[C@@H](N)C[C@H]2C(=O)NCc2cccc3ccccc23)c2ccccc21 [Example 64, (2S,4S)-4-Amino-pyrrolidine-1,2-dicarboxylic acid 1-[(1-carbamoyl-1H-indol-3-yl)-amide] 2-[(naphthalen-1-ylmethyl)-amide]]
IC50: 22400 nM

CO[C@H]1[C@@H](C(=O)Nc2cccc(Br)n2)N(C(=O)Cn2nc(C(C)=O)c3ccccc32)C[C@@H]1F [Example 756, (2S,3S,4S)-1-[2-(3-Acetyl-indazole-1-yl)-acetyl]-4-fluoro-3-methoxy-pyrrolidine-2-carboxylic acid (6-bromo-pyridin-2-yl)-amide]
IC50: 7 nM

NC[C@H]1C[C@@H](C(=O)NCc2cccc(Cl)c2F)N(C(=O)Nc2cn(C(N)=O)c3ccccc23)C1 [Example 405, 2S,4R)-4-Aminomethyl-pyrrolidine-1,2-dicarboxylic acid 1-[(1-carbamoyl-1H-indol-3-yl)-amide]2-(3-chloro-2-fluoro-benzylamide]
IC50: 295 nM

COC(=O)c1ccc2c(C(C)=O)nn(CC(=O)N3[C@@H]4C[C@@H]4C[C@H]3C(=O)Nc3cccc(OC(F)(F)F)c3F)c2c1 [Example 710, Methyl 3-acetyl-1-(2-((1R,3S,5R)-3-(2-fluoro-3-(trifluoromethoxy)phenylcarbamoyl)-2-azabicyclo [3.1.0]hexan-2-yl)-2-oxoethyl)-1H-indazole-6-carboxylate]
IC50: 52 nM

CO[C@H]1[C@@H](C(=O)N[C@H](C)c2cccc(Cl)c2F)N(C(=O)Cn2nc(C(N)=O)c3ccncc32)C[C@@H]1F [Example 664, 1-(2-{(2S,3S,4S)-2-[(R)-1-(3-Chloro-2-fluoro-phenyl)-ethylcarbamoyl]-4-fluoro-3-methoxy-pyrrolidin-1-yl}-2-oxo-ethyl)-1H-pyrazolo[3,4-c]pyridine-3-carboxylic acid amide]
IC50: 24 nM

NC(=O)n1cc(NC(=O)N2[C@@H]3C[C@@H]3C[C@H]2C(=O)NCc2cccc(Cl)c2F)c2ccc(CCO)cc21 [Example 384, 1R,3S,5R)-2-Aza-bicyclo[3.1.0]hexane-2,3-dicarboxylic acid 2-{[1-carbamoyl-6-(2-hydroxy-ethyl)-1H-indol-3-yl]-amide}3-(3-chloro-2-fluoro-benzylamide]
IC50: 32 nM

COCCOc1ccc2c(c1)c(C(C)=O)nn2CC(=O)N1[C@@H]2C[C@@H]2C[C@H]1C(=O)Nc1cccc(OC(F)(F)F)c1F [Example 770, (1R,3S,5R)-2-{2-[3-Acetyl-5-(2-methoxy-ethoxy)-indazol-1-yl]-acetyl}-2-aza-bicyclo[3.1.0]hexane-3-carboxylic acid (2-fluoro-3-trifluoromethoxy-phenyl)-amide]
IC50: 9 nM

NC(=O)n1cc(NC(=O)N2C[C@H](F)C[C@H]2C(=O)NCc2ccnc(C(F)(F)F)c2F)c2ccccc21 [Example 232, (2S,4R)-4-Fluoro-pyrrolidine-1,2-dicarboxylic acid 1-[(1-carbamoyl-1H-indol-3-yl)-amide] 2-[(3-fluoro-2-trifluoromethyl-pyridin-4-ylmethyl)-amide]]
IC50: 989 nM

O=C(CO)c1nn(CC(=O)N2[C@@H]3C[C@@H]3C[C@H]2C(=O)NCc2cccc(Cl)c2F)c2ccccc12 [Example 652, (1R,3S,5R)-2-{2-[3-(2-Hydroxy-acetyl)-indazol-1-yl]-acetyl}-2-aza-bicyclo [3.1.0]hexane-3-carboxylic acid 3-chloro-2-fluoro-benzylamide]
IC50: 19 nM

CC(=O)c1cn(CC(=O)N2[C@@H]3C[C@@H]3C[C@H]2C(=O)NCc2cccc(Cl)c2F)c2nc(C#N)ccc12 [Example 532, (1R,3S,5R)-2-[2-(3-Acetyl-6-cyano-pyrrolo[2,3-b]pyridin-1-yl)-acetyl]-2-aza-bicyclo[3.1.0] hexane-3-carboxylic acid 3-chloro-2-fluoro-benzylamide]
IC50: 223 nM

Cc1ncc(Br)cc1NC(=O)[C@@H]1C[C@@H](F)CN1C(=O)Nc1cn(C(N)=O)c2ccccc12 [Example 168, (2S,4R)-4-Fluoro-pyrrolidine-1,2-dicarboxylic acid 2-[(5-bromo-2-methyl-pyridin-3-yl)-amide] 1-[(1-carbamoyl-1H-indol-3-yl)-amide]]
IC50: 250 nM

NC(=O)c1nn(CC(=O)N2[C@@H]3C[C@@H]3C[C@H]2C(=O)NCc2cccc(Cl)c2F)c2cnc(C3CC3)cc12 [Example 700, 1-{2-[(1R,3S,5R)-3-(3-Chloro-2-fluoro-benzylcarbamoyl)-2-aza-bicyclo[3.1.0]hex-2-yl]-2-oxo-ethyl}-5-cyclopropyl-1H-pyrazolo[3,4-c]pyridine-3-carboxylic acid amide]
IC50: 6 nM

NC(=O)c1nn(CC(=O)N2C[C@H]3C[C@H]3[C@H]2C(=O)Nc2cccc(Br)n2)c2ccccc12 [Example 746, 1-{2-[(1R,2S,5S)-2-(6-Bromo-pyridin-2-ylcarbamoyl)-3-aza-bicyclo[3.1.0]hex-3-yl]-2-oxo-ethyl}-1H-indazole-3-carboxylic acid amide]
IC50: 7 nM

NC(=O)n1cc(NC(=O)N2C[C@@H](N)C[C@H]2C(=O)NCc2ccccc2)c2ccccc21 [Example 28, (2S,4S)-4-Amino-pyrrolidine-1,2-dicarboxylic acid 2-benzylamide 1-[(1-carbamoyl-1H-indol-3-yl)-amide]]
IC50: 2520 nM

COC(=O)c1cc(Br)cc(NC(=O)[C@@H]2SCCN2C(=O)Nc2cn(C(N)=O)c3ccccc23)c1 [Example 198, 3-Bromo-5-{[(S)-3-(1-carbamoyl-1H-indol-3-ylcarbamoyl)-thiazolidine-2-carbonyl]-amino}-benzoic acid methyl ester]
IC50: 357 nM

CS(=O)(=O)c1cccc(NC(=O)[C@@H]2CCCN2C(=O)Nc2cn(C(N)=O)c3ccccc23)c1 [Example 325, (S)-Pyrrolidine-1,2-dicarboxylic acid 1-[(1-carbamoyl-1H-indol-3-yl)-amide] 2-[(3-methanesulfonyl-phenyl)-amide]]
IC50: 2250 nM

NC[C@@H]1C[C@@H](C(=O)Nc2cccc(OC(F)(F)F)c2)N(C(=O)Nc2cn(C(N)=O)c3ccccc23)C1 [Example 404, (2S,4S)-4-Aminomethyl-pyrrolidine-1,2-dicarboxylic acid 1-[(1-carbamoyl-1H-indol-3-yl)-amide]2-[(3-trifluoromethoxy-phenyl)-amide]]
IC50: 1000 nM

CO[C@H]1[C@@H](C(=O)N[C@H](C)c2cccc(Cl)c2F)N(C(=O)Cn2cc(C(C)=O)c3ccccc32)C[C@@H]1F [Example 570, (2S,3S,4S)-1-[2-(3-Acetyl-indol-1-yl)-acetyl]-4-fluoro-3-methoxy-pyrrolidine-2-carboxylic acid [(R)-1-(3-chloro-2-fluoro-phenyl)-ethyl]-amide]
IC50: 27 nM

CO[C@@H]1C[C@@H](C(=O)Nc2cccc(OC(F)(F)F)c2)N(C(=O)Nc2cn(C(N)=O)c3ccccc23)C1 [Example 316, (2S,4R)-4-Methoxy-pyrrolidine-1,2-dicarboxylic acid 1-[(1-carbamoyl-1H-indol-3-yl)-amide] 2-[(3-trifluoromethoxy-phenyl)-amide]]
IC50: 3100 nM

NC(=O)n1cc(NC(=O)N2C[C@@H](N)C[C@H]2C(=O)NCc2cccc(Br)c2)c2ccccc21 [Example 34, (2S,4S)-4-Amino-pyrrolidine-1,2-dicarboxylic acid 2-(3-bromo-benzylamide) 1-[(1-carbamoyl-1H-indol-3-yl)-amide]]
IC50: 90 nM

CC(=O)c1cn(CC(=O)N2C[C@H](F)C[C@H]2C(=O)NCc2cc(-c3nnn[nH]3)cc(Cl)c2F)c2ccccc12 [Example 521, (2S,4R)-1-[2-(3-Acetyl-indol-1-yl)-acetyl]-4-fluoro-pyrrolidine-2-carboxylic acid 3-chloro-2-fluoro-5-(1H-tetrazol-5-yl)-benzylamide]
IC50: 37 nM

NC(=O)n1cc(NC(=O)N2[C@@H]3C[C@@H]3C[C@H]2C(=O)Nc2cncc(Br)c2)c2ccccc21 [Example 171, (1R,3S,5R)-2-Aza-bicyclo[3.1.0]hexane-2,3-dicarboxylic acid 2-[(1-carbamoyl-1H-indol-3-yl)-amide] 3-[(5-bromo-pyridin-3-yl)-amide]]
IC50: 200 nM

CO[C@H]1[C@@H](C(=O)NCc2cccc(Cl)c2F)N(C(=O)Cn2nc(C(C)=O)c3ccncc32)C[C@@H]1F [Example 682, (2S,3S,4S)-1-[2-(3-Acetyl-pyrazolo[3,4-c]pyridin-1-yl)-acetyl]-4-fluoro-3-methoxy-pyrrolidine-2-carboxylic acid 3-chloro-2-fluoro-benzylamide]
IC50: 12 nM

CO[C@H]1[C@@H](C(=O)NC2(c3ccc(Cl)cc3)CC2)N(C(=O)Cn2cc(C(C)=O)c3ccccc32)C[C@@H]1F [Example 573, (2S,3S,4S)-1-[2-(3-Acetyl-indol-1-yl)-acetyl]-4-fluoro-3-methoxy-pyrrolidine-2-carboxylic acid [1-(4-chloro-phenyl)-cyclopropyl]-amide]
IC50: 865 nM

CC[C@H](C)[C@@H](CO)NC(=O)[C@@H]1C[C@H](N)CN1C(=O)Nc1cn(C(N)=O)c2ccccc12 [Example 101, (2S,4S)-4-Amino-pyrrolidine-1,2-dicarboxylic acid 1-[(1-carbamoyl-1H-indol-3-yl)-amide] 2-[((1S,2S)-1-hydroxymethyl-2-methyl-butyl)-amide]]
IC50: 15200 nM

NC(=O)n1cc(NC(=O)N2C[C@H](CO)C[C@H]2C(=O)NCc2cccc(Cl)c2F)c2ccccc21 [Example 352, 2S,4R)-4-Hydroxymethyl-pyrrolidine-1,2-dicarboxylic acid 1-[(1-carbamoyl-1H-indol-3-yl)-amide]2-(3-chloro-2-fluoro-benzylamide]
IC50: 200 nM

CO[C@H]1[C@@H](C(=O)Nc2cccc(OC(F)(F)F)c2F)N(C(=O)Cn2nc(C(N)=O)c3ccncc32)C[C@@H]1F [Example 629, 1-{2-[(2S,3S,4S)-4-Fluoro-2-(2-fluoro-3-trifluoromethoxy-phenylcarbamoyl)-3-methoxy-pyrrolidin-1-yl]-2-oxo-ethyl}-1H-pyrazolo[3,4-c]pyridine-3-carboxylic acid amide trifluoroacetate]
IC50: 17 nM

CC(=O)c1cn(CC(=O)N2C[C@](C)(F)C[C@H]2C(=O)NCc2cccc(Cl)c2F)c2ncccc12 [Example 530, (2S,4R)-1-[2-(3-Acetyl-pyrrolo[2,3-b]pyridin-1-yl)-acetyl]-4-fluoro-4-methyl-pyrrolidine-2-carboxylic acid 3-chloro-2-fluoro-benzylamide]
IC50: 72 nM
